Measurements from US20240277899A1, “PRODUCTION METHOD OF MYOCARDIAL CELL LAYER, MYOCARDIAL CELL LAYER, AND USE THEREOF” (FUJIFILM Corporation, priority 2021, published 2024).
Like-named read-outs stand apart in the source and are kept apart here.

Tested on: myocardial cell layer of myocardial cell C (iCell Cardiomyocytes^2, purity 80%)
Assay: Drug screening: electrical signal of spontaneous beating of the myocardial cell layer measured by MEA (QT interval, beat rate, cardiotoxicity)
Settings: for myocardial beat rate on addition of the drug: MEA 5 minutes after adding drug, Day 17; for myocardial beat rate reaction, TW compared with Control: TW layer versus Control layer
Description: iCell (registered trademark) Cardiomyocytes^2 was thawed according to “iCell Cardiomyocytes^2 User's Guide” to prepare myocardial cells C (purity of the myocardial cells 100%). In addition, myocardium-derived fibroblasts (NHCF-V human cardiac fibroblasts, Lonza, CC-2904) were added to the myocardial cells C to prepare myocardial cells with a purity of 25%, 50%, and 75%, respectively. Each of the prepared myocardial cells was dispersed at 1×10^6 cells/cm^2 and scattered on the seeding surface of the cells of the culture container 3 prepared in Example 1 to form a myocardial cell layer. The cells were cultured in the same manner as in Example 2, a beating frequency was measured, and stability of the TW was evaluated.
Using the myocardial cell C (the myocardial cell with a purity of 80%, which was obtained in the same manner as in Example 4) and the above-described culture container 3 (biodegradable fiber material), a myocardial cell layer was formed in the same manner as in Example 4. […] In addition, the beating frequency was measured up to Day 14 (TW). As a control, the beating frequency was measured in the same manner for those (Control) in which the TW was stopped by exchanging the culture medium with a culture medium at 4° C. on Day 2.
A culture container 3 (biodegradable fiber material) was created in the same manner as in Example 10. In addition, a culture container 3 (PC) was created in the same manner as for the culture container 3 (biodegradable fiber material), using polycarbonate (PC) porous membrane (Thermo Fisher Scientific, Inc., Nunc™ Polycarbonate Cell Culture Cell Inserts in Multi-Well Plates 140644) as a scaffold material. A myocardial cell layer was formed in the same manner as in Example 2, using the myocardial cells B, the culture container 3 (biodegradable fiber material), and the culture container 3 (PC). […] After Day 14, the electrical signal of myocardial spontaneous beating was measured by MEA by stopping the TW by exchanging the culture medium with a culture medium at 4° C. Specifically, data of extracellular Field Potentials (FPs) was recorded on a multielectrode array (MEA) system (USB-ME64-System, Multi Channel Systems, Germany).
A culture container 3 (biodegradable fiber material) was created in the same manner as in Example 10. Using the myocardial cell C (the myocardial cell with a purity of 80%, which was obtained in the same manner as in Example 4) and the above-described culture container 3 (biodegradable fiber material), a myocardial cell layer was formed in the same manner as in Example 4. Those in which the generated TW was stably maintained up to Day 14 (TW), and those in which TW was stopped by exchanging the culture medium with a culture medium at 4° C. on Day 2 (Control), that is, a total of two kinds were produced.

SMILES | myocardial beat rate on addition of the drug | myocardial beat rate reaction, TW compared with Control (MEA 5 minutes after drug) | QT interval extension, TW compared with Control (TW layer (TW maintained up to Day 14) versus Control layer (TW stopped on Day 2), MEA 5 minutes after drug) | QT interval as the concentration increased | QT interval extension, TW compared with Control
CC(C)NCC(O)c1ccc(O)c(O)c1 (centres unmarked) [isoproterenol] | increased | more sensitive in reaction to isoproterenol as compared with Control |  |  | 
COc1ccc(CCN(C)CCCC(C#N)(c2ccc(OC)c(OC)c2)C(C)C)cc1OC (centres unmarked) [verapamil] | increased | more sensitive in reaction to verapamil as compared with Control |  |  | 
Cc1cccc(C)c1OCC(C)N (centres unmarked) [mexiletine] |  |  | smaller than Control |  | 
CC(=O)Oc1ccccc1C(=O)O [aspirin] |  | almost the same |  | decreased | almost the same
